Read-outs that look alike come from different tables or passages of the source.
Tests used:
[1] = molecular target: T1, human glucocorticoid receptor-α [GRX] isoform (Homo sapiens, UniProt P04150); test: Radioligand binding with human glucocorticoid receptor cytosol ([3H]-dexamethasone competition); settings: read-out: Ki (nM) GR
T1 construct: host or cells: insect SF21 cells (baculovirus)
T1 sequence (P04150 1-777): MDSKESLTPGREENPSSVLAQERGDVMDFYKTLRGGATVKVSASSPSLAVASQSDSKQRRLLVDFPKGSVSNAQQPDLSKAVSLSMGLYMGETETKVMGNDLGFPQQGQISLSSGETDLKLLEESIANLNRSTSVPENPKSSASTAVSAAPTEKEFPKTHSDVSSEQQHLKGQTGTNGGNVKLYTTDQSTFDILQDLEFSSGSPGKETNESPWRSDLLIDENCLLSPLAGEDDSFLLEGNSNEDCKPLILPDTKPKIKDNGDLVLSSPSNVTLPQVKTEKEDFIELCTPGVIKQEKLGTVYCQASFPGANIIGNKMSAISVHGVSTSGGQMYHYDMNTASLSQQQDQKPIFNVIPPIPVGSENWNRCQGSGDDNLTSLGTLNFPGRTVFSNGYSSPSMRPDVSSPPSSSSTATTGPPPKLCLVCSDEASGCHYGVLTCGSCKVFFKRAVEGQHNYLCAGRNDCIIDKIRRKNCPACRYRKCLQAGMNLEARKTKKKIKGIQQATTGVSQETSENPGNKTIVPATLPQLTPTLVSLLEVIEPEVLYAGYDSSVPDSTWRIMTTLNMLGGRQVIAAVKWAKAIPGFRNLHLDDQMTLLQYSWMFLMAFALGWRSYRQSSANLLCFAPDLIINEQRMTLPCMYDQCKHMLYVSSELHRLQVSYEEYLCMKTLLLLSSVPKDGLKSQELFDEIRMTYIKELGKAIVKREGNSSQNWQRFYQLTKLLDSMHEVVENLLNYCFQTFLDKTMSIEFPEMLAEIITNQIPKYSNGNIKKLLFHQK

[2] = molecular target: T2, human progesterone receptor-A [PRA] isoform (Homo sapiens, UniProt P06401); test: Radioligand binding with human progesterone receptor cytosol ([3H]-progesterone competition); settings: read-out: Ki (nM) PR
T2 construct: host or cells: insect SF21 cells (baculovirus)
T2 sequence (P06401 1-769 isoform P06401-2): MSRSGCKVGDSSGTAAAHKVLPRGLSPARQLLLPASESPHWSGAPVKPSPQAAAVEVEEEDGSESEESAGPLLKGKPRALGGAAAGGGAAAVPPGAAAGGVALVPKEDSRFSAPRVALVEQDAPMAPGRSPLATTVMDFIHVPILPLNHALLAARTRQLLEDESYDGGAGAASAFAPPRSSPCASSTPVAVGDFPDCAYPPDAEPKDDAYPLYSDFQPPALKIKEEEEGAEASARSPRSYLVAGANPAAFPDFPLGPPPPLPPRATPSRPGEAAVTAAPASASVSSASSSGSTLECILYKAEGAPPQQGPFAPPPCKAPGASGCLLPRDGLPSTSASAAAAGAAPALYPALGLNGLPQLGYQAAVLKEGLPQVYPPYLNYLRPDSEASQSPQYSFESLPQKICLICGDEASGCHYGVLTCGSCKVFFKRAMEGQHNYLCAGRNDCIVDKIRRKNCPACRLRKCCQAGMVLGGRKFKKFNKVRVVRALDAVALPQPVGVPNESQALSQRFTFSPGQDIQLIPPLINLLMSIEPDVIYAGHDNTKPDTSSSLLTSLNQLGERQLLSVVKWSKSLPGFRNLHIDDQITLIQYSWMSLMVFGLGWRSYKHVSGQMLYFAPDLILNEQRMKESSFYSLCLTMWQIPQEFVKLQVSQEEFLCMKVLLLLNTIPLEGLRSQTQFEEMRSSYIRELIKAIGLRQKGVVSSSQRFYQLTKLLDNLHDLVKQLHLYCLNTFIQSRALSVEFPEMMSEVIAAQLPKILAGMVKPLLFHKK

[3] = GRX cytosol expressed in insect SF21 cells, [3H]-Dex ~0.9 nM, 4° C. overnight, Ki by Cheng-Prusoff, KL ~[…]
[4] = PRA cytosol expressed in insect SF21 cells, [3H]Prog ~0.8 nM, 4° C. overnight, Ki by Cheng-Prusoff, KL ~4.5 nM

SMILES | Ki [1, 3] [nM] | Ki [2, 4] [nM] | Ki [1] [nM] | Ki [2] [nM]
C=CCC1Oc2ccc(OC(=O)NCC(=O)OCC)c(OC)c2-c2ccc3c(c21)C(C)=CC(C)(C)N3 (stereo not shown) [Example 427, 9-(2-Ethoxy-2-oxo-ethylaminocarbonyl)-oxy-10-methoxy-5-(3-propenyl)-2,2,4-trimethyl-1H-2,5-dihydro-[1]benzopyrano[3,4-f]quinoline] | – | – | 7.8 | 2200
COc1cccc2c1-c1ccc3c(c1C(N(C)c1ccccc1)O2)C(C)=CC(C)(C)N3 (stereo not shown) [Example 35, 2,5-Dihydro-10-methoxy-2,2,4,N-tetramethyl-N-phenyl-1H-[1]benzopyrano[3,4-f]quinolin-5-amine] | 260 | ≥ 10000 | – | –
COc1c(OC(=O)CCC(=O)N(C)C)ccc2c1-c1ccc3c(c1C(C(C)C)O2)C(C)=CC(C)(C)N3 (stereo not shown) [Example 423, 2,5-Dihydro-9-(4-N,N-dimethylamino-4-oxo-butanoyloxy)-10-methoxy-2,2,4-trimethyl-5-(1-methylethyl)-1H-[1]benzopyrano[3,4-f]quinoline] | 0.67 | 8180 | – | –
COc1cccc2c1-c1ccc3c(c1C(CC(=O)C(C)(C)C)O2)C(C)=CC(C)(C)N3 (stereo not shown) [Example 43, 1-(2,5-Dihydro-10-methoxy-2,2,4-trimethyl-1H-[1]benzopyrano[3,4-f]quinolin-5yl)-3,3-dimethyl-2-butanone] | 72 | ≥ 10000 | – | –
COc1cccc2c1-c1ccc3c(c1C(c1cccc(CCN(C)C)c1)O2)C(C)=CC(C)(C)N3 (stereo not shown) [Example 318, 2,5-Dihydro-10-methoxy-5-(3-(2-(N,N-dimethylamino)ethyl)phenyl)-2,2,4-trimethyl-1H-[1]benzopyrano[3,4-f]quinoline] | 553 | ≥ 10000 | – | –
COc1cccc2c1-c1ccc3c(c1C(c1ccc(F)c(C)c1)O2)C(C)=CC(C)(C)N3 (stereo not shown) [Example 55] | 8.2 | ≥ 10000 | – | –
CC1=CC(C)(C)Nc2ccc3c(c21)C(c1ccccc1)Oc1cccc(OC(F)(F)Br)c1-3 (stereo not shown) [Example 346, 10-(Bromodifluoromethoxy)-2,5-dihydro-5-phenyl-2,2,4-trimethyl-1H-[1]benzopyrano[3,4-f]quinoline] | 44 | 5110 | – | –
C=CCC1Oc2cccc(SC)c2-c2ccc3c(c21)C(C)=CC(C)(C)N3 (stereo not shown) [Example 342, 2,5-Dihydro-5-(3-propenyl)-10-methylthio-2,2,4-trimethyl-1H-[1]benzopyrano[3,4-f]quinoline] | 2590 | ≥ 10000 | – | –
COc1cccc2c1-c1ccc3c(c1C(CCCNC(=O)NN)O2)C(C)=CC(C)(C)N3 (stereo not shown) [Example 178, 2,5-Dihydro-10-methoxy-5-(1-(hydrazinocarbonylamino)-3-propyl)-2,2,4-trimethyl-1H-[1]benzopyrano[3,4-f]quinoline] | 468 | ≥ 10000 | – | –
COc1c(O)ccc2c1-c1ccc3c(c1C(c1cccc(O)c1)O2)C(C)=CC(C)(C)N3 (stereo not shown) [Example 398, 2,5-Dihydro-9-hydroxy-10-methoxy-2,2,4-trimethyl-5-(3-hydroxyphenyl)-1H-[1]benzopyrano[3,4-f]quinoline] | 6.7 | 1080 | – | –
C#CCOc1cccc2c1-c1ccc3c(c1C(c1ccccc1)O2)C(C)=CC(C)(C)N3 (stereo not shown) [Example 75, 2,5-Dihydro-2,2,4-trimethyl-5-phenyl-10-(2-propynyloxy)-1H-[1]benzopyrano[3,4-f]quinoline] | 7.3 | 13800 | – | –
COc1cccc2c1-c1ccc3c(c1C(/C=C/CO)O2)C(C)=CC(C)(C)N3 (stereo not shown) [Example 181, (E) 2,5-Dihydro-10-methoxy-5-(3-hydroxy-1-propenyl)-2,2,4-trimethyl-1H-[1]benzopyrano[3,4-f]quinoline] | 207 | ≥ 10000 | – | –
COc1cccc2c1-c1ccc3c(c1C(c1ccc(N4CCOCC4)cc1)O2)C(C)=CC(C)(C)N3 (stereo not shown) [Example 42, 2,5-Dihydro-10-methoxy-2,2,4-trimethyl-5-[4-(1-morpholinyl)phenyl]1H-[1]benzopyrano[3,4-f]quinoline] | 99 | ≥ 10000 | – | –
C#CCOc1ccc2c(c1OC)-c1ccc3c(c1C(CC=C)O2)C(C)=CC(C)(C)N3 (stereo not shown) [Example 294, 10-Methoxy-9-(3-propynyloxy)-5-(3-propenyl)-2,2,4-trimethyl-1H-2,5-dihydro[1]benzopyrano[3,4-f]quinoline] | 13.8 | 1810 | – | –
COc1cccc2c1-c1ccc3c(c1CO2)C(C)=CC(C)(C)N3 [Example 38, 2,5-Dihydro-10-methoxy-2,2,4-trimethyl-1H-[1]benzopyrano[3,4-f]quinoline] | 207 | ≥ 10000 | – | –
COC(=O)Oc1cccc2c1-c1ccc3c(c1C(c1cc(Cl)cc(Cl)c1)O2)C(C)=CC(C)(C)N3 (stereo not shown) [Example 81] | 155 | ≥ 10000 | – | –
C=CCC1Oc2ccc(OCC)c(OC)c2-c2ccc3c(c21)C(C)=CC(C)(C)N3 (stereo not shown) [Example 292, 10-Methoxy-9-ethoxy-5-(3-propenyl)-2,2,4-trimethyl-1H-2,5-dihydro-[1]benzopyrano[3,4-f]quinoline] | 487 | 8340 | – | –

More lines, main results first:

Ki [1, 3] [nM] | Ki [2, 4] [nM] | SMILES | Ki [1] [nM] | Ki [2] [nM]
436 | 3760 | COc1c(O)ccc2c1-c1ccc3c(c1[C@@H]([C@H]1C=CCCC1)O2)C(C)=CC(C)(C)N3 [Example 285] | – | –
11.7 | 2870 | COc1c(O)ccc2c1-c1ccc3c(c1C(c1ccccc1C)O2)C(C)=CC(C)(C)N3 (racemic) [Example 275, (±)2,5-Dihydro-9-hydroxy-10-methoxy-2,2,4-trimethyl-5-(2-methylphenyl)-1H-[1]benzopyrano[3,4-f]quinoline] | – | –
1.5 | 433 | COc1cccc2c1-c1ccc3c(c1[C@H]([C@H]1C=C(C)CCC1)O2)C(C)=CC(C)(C)N3 [Example 157, (−)-(5S,3′R) 2,5-Dihydro-10-methoxy-5-(1-methyl-3-cyclohexenyl)-2,2,4-trimethyl-1H-[1]benzopyrano[3,4-f]quinoline] | – | –
110 | 2100 | COc1c(O)ccc2c1-c1ccc3c(c1C(C1C=CCCC1)O2)C(C)=CC(C)(C)N3 (single isomer, unassigned; (+)) [Example 284] | – | –
1.1 | 25.7 | C=CCC1Oc2ccc(CO)c(Cl)c2-c2ccc3c(c21)C(C)=CC(C)(C)N3 (stereo not shown) [Example 410, 2,5-Dihydro-9-hydroxymethyl-10-chloro-2,2,4-trimethyl-5-allyl-1H-[1]benzopyrano[3,4-f]quinoline] | – | –
14 | ≥ 10000 | COc1cccc2c1-c1ccc3c(c1[C@@H]([C@H]1C=C(CN(C)C)CCC1)O2)C(C)=CC(C)(C)N3 (relative stereo) [Example 165] | – | –
13 | ≥ 10000 | COc1cccc2c1-c1ccc3c(c1C(C1C=CCCC1(C)C)O2)C(C)=CC(C)(C)N3 (stereo not shown) [Example 140] | – | –
1.3 | 49.7 | CCC1Oc2ccc(O)c(Cl)c2-c2ccc3c(c21)C(C)=CC(C)(C)N3 (stereo not shown) [Example 404, 2,5-Dihydro-9-hydroxy-10-chloro-2,2,4-trimethyl-5-ethyl-1H-[1]benzopyrano[3,4-f]quinoline] | – | –
0.47 | 9.9 | CC1=CC(C)(C)Nc2ccc3c(c21)[C@H]([C@H]1C=CCC1)Oc1ccc(O)c(Cl)c1-3 [Example 222, (−)2,5(S)-Dihydro-9-hydroxy-10-chloro-2,2,4-trimethyl-5-(3R-cyclopentenyl)-1H-[1]benzopyrano[3,4-f]quinoline] | – | –

Reference: US6506766B1 (Abbott Laboratories, priority 1998, dated 2003)
